{"source": "patent US20140296484A1", "about": "“Cyclin Based Inhibitors of CDK2 and CDK4” (University of South Carolina, priority 2013, published 2014)", "key": {"CDK4/Cyclin D1 [1]": {"molecular_target": "T1, CDK4/Cyclin D1 (Homo sapiens, UniProt P24385)", "T1 sequence (P24385 whole entry)": "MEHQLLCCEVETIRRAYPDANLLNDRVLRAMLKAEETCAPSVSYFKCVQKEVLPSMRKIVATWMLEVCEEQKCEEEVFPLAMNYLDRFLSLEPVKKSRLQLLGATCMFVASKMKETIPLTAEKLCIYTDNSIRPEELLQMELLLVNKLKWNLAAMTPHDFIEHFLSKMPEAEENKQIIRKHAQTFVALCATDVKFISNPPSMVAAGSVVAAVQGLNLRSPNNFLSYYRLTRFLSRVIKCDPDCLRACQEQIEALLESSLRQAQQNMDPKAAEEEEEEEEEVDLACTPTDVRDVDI", "T1 sequence (P11802 whole entry partner)": "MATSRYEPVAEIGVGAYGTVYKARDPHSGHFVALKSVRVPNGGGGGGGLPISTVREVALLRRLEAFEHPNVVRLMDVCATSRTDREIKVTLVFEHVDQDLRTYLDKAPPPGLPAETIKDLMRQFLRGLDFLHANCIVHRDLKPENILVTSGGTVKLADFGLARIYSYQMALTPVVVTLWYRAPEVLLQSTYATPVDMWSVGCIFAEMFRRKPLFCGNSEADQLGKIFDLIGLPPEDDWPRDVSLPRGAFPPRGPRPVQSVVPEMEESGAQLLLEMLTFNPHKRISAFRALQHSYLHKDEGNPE", "assay": "In vitro kinase assay, 32P filter capture with GST-Rb substrate", "assay_type": "biochemical", "conditions": "for IC50: kinase assay"}, "CDK2/Cyclin A2": {"molecular_target": "CDK2/Cyclin A2 (Homo sapiens, UniProt P20248)", "assay": "In vitro kinase assay, 32P filter capture with GST-Rb substrate", "assay_type": "biochemical"}, "CDK2/cyclin A": {"molecular_target": "CDK2/cyclin A (Homo sapiens, UniProt P20248)", "assay": "Fluorescence polarization (FP) competitive binding assay", "protocol": "(§1) Once the compounds were characterized, their binding affinities were tested by FP assay."}, "[2]": {"assay": "Fluorescence polarization (FP) competitive binding assay", "conditions": "Table 20; read-out: CDK2/Cyclin A IC050", "protocol": "(§2) In order to assess the contribution of the PLA H-bond acceptor, analogous compounds were made in each series and activities for the 4-chloro and 3,5-dichloro analog were evaluated in each context.\n(§3) Several additional analogs were synthesized in addition to the 3,5 dichloro and 4-chlorophenyl analogs. In addition to determining their inhibition of CDK2/cyclin A, the availability of the CDK4/cyclin D1 binding assay was exploited to develop SAR for both kinases.\nas §1"}, "CDK4/Cyclin D1 [3]": {"molecular_target": "T1, CDK4/Cyclin D1", "assay": "Fluorescence polarization (FP) competitive binding assay", "protocol": "as §2, §3, §1"}, "[4]": {"conditions": "Table 10, Scaffold III N-caps on the peptide link, read-out: IC50 CDK2/A2"}, "[5]": {"conditions": "competitive binding (FP) assay, read-out: CDK2/Cyclin A IC50"}, "[6]": {"conditions": "Table 15, read-out: CDK2/Cyclin D1 IC50"}}, "note": "Where “and” joins values, the source holds several entries; their conditions need not be identical. Identical values can stand only once. Like-named read-outs stand apart in the source and are kept apart here. Where a SMILES comes first, the peptide text is derived from it. Where no end group is shown, it is not given here. [ ]: non-standard residue; d: D form. The star is where a group is joined. X5 = Cc1nc(C(=O)*)nn1-c1cc(Cl)cc(Cl)c1; X2 = O=C(c1ccc(-c2ccc(Cl)cc2)o1)*; 3Pal = N[C@@H](Cc1cccnc1)C(=O)O; 2Thi = N[C@@H](Cc1cccs1)C(=O)O; Cba = N[C@@H](CC1CCC1)C(=O)O; Picolinoyl = O=C(c1ccccn1)*; Bz = O=C(c1ccccc1)*"}
{"compound": "CC[C@H](C)[C@H](NC(=O)[C@H](CC(C)C)NC(=O)[C@H](CCCNC(=N)N)NC(=O)[C@H](CCCNC(=N)N)NC(=O)[C@H](CCCCN)NC(=O)[C@H](C)NC(=O)[C@@H](N)Cc1c[nH]cn1)C(=O)N[C@@H](CC1CCC1)C(N)=O", "note": "[HAKRRLIX4] (H-HAKRRLI[Cba]-NH2)", "values": [{"measurement": "IC50", "setting": "CDK4/Cyclin D1 [1]", "result": 100, "unit": "µM"}, {"measurement": "IC50", "setting": "CDK2/Cyclin A2", "result": 25, "unit": "µM"}]}
{"compound": "5920 (RLIF; also: OH in table column, meaning not given here) [compound 5920]", "values": [{"measurement": "IC50", "setting": "CDK2/cyclin A; [4]", "result": 5.86, "unit": "µM"}]}
{"compound": "Cc1nc(C(=O)NC(CCCCNC(=N)N)C(=O)NC(CC(C)C)c2ccccc2OCC(C)C)nn1-c1cc(Cl)cc(Cl)c1", "note": "(centres unmarked) [compound 5978]", "values": [{"measurement": "IC50", "setting": "CDK2/cyclin A; [5]", "result": "> 180", "unit": "µM"}, {"measurement": "IC50", "setting": "[2]", "result": "> 180", "unit": "µM"}]}
{"compound": "H-SAKRNLFGM-NH2", "values": [{"measurement": "IC50", "setting": "CDK4/Cyclin D1 [1]", "result": 146, "unit": "µM"}]}
{"compound": "COc1ccccc1CC(CC(C)C)NC(=O)C(CCCCNC(=N)N)NC(=O)c1nc(C)n(-c2cc(Cl)cc(Cl)c2)n1", "note": "(single isomer, unassigned) [compound 5981]", "values": [{"measurement": "IC50", "setting": "CDK2/cyclin A; [5]", "result": "> 180", "unit": "µM"}, {"measurement": "IC50", "setting": "[2]", "result": "> 180", "unit": "µM"}]}
{"compound": "CC[C@H](C)[C@H](NC(=O)[C@H](CC(C)C)NC(=O)[C@H](CCCNC(=N)N)NC(=O)[C@@H](N)CCCNC(N)=O)C(=O)N[C@@H](Cc1ccccc1)C(N)=O", "note": "[CitRLIF, Cit-RLIF]", "values": [{"measurement": "IC50", "setting": "CDK4/Cyclin D1 [1]", "result": 179, "unit": "µM"}]}
{"compound": "Cc1nc(C(=O)N[C@@H](CCCNC(=N)N)C(=O)NC(CC(=O)NCCc2ccccc2)CC(C)C)nn1-c1cc(Cl)cc(Cl)c1", "note": "(some centres unmarked) [compound 6002]", "values": [{"measurement": "IC50", "setting": "CDK2/cyclin A; [5]", "result": "> 180", "unit": "µM"}, {"measurement": "IC50", "setting": "CDK4/Cyclin D1 [3]; [6]", "result": "> 180", "unit": "µM"}]}
{"compound": "CC[C@H](C)[C@H](NC(=O)[C@H](CC(C)C)NC(=O)[C@H](CCCNC(=N)N)NC(=O)[C@H](CCCNC(=N)N)NC(=O)[C@H](CCCCN)NC(=O)[C@H](C)NC(=O)[C@@H](N)Cc1c[nH]cn1)C(=O)N[C@@H](Cc1cccs1)C(N)=O", "note": "[HAKRRLIX2] (H-HAKRRLI[2Thi]-NH2)", "values": [{"measurement": "IC50", "setting": "CDK2/Cyclin A2", "result": 3.6, "unit": "µM"}]}
{"compound": "5921 (RLIF; also: C7H16N2 group attached) [compound 5921]", "values": [{"measurement": "IC50", "setting": "CDK2/cyclin A; [4]", "result": "6.04 µM and 6.6 µM"}]}
{"compound": "CC(C)C[C@@H](CC(=O)NCc1cccc(Oc2ccccc2)c1)NC(=O)[C@H](CCCNC(=N)N)NC(=O)[C@@H](N)CCCNC(=N)N", "note": "[SCCP 5624, Arg-Arg-β-homoleucyl-3-phenoxybenzylamid]", "values": [{"measurement": "selectivity", "setting": "CDK4/Cyclin D1 [1]; CDK4/cyclin D1 vs CDK2/cyclin A", "result": "selective for CDK4/cyclin D1"}]}
{"compound": "CC[C@H](C)[C@H](NC(=O)[C@H](CC(C)C)NC(=O)[C@H](CCCNC(=N)N)NC(=O)c1nc(C)n(-c2cc(Cl)cc(Cl)c2)n1)C(=O)N[C@@H](Cc1ccccc1)C(=O)O", "note": "[SCCP 5773, 1-(3,5-dichlorophenyl)-5-methyl-1H-1,2,4-triazole-3-carbonyl-RLIF] (X5-RLIF-OH)", "values": [{"measurement": "IC50", "setting": "CDK2/cyclin A; [5]", "result": 12, "unit": "µM"}, {"measurement": "IC50", "setting": "CDK4/Cyclin D1 [3]; competitive binding (FP) assay, read-out: CDK4/Cyclin D1 IC50", "result": 27, "unit": "µM"}]}
{"compound": "CC[C@H](C)[C@H](NC(=O)[C@H](CC(C)C)NC(=O)[C@H](CCCNC(=N)N)NC(=O)c1ccccn1)C(=O)N[C@@H](Cc1ccccc1)C(=O)O", "note": "[525 (RLIF form)] (Picolinoyl-RLIF-OH)", "values": [{"measurement": "IC50", "setting": "CDK2/cyclin A; Table 11, value tagged (LIF), read-out: IC50 CDK2/A2 (LIF)", "result": "94.3 ± 14.9", "unit": "µM"}, {"measurement": "IC50", "setting": "CDK4/Cyclin D1 [3]; Table 11, value tagged (LIF) (0321), read-out: IC50 CDK4/D1 (LIF) (0321)", "result": 49, "unit": "µM"}, {"measurement": "IC50", "setting": "CDK4/Cyclin D1 [3]; Table 11, value tagged (LIF), read-out: IC50 CDK4/D1 (LIF)", "result": 64, "unit": "µM"}]}
{"compound": "CC[C@H](C)[C@H](NC(=O)[C@H](CC(C)C)NC(=O)[C@H](CCCNC(=N)N)NC(=O)c1ccc(-c2ccc(Cl)cc2)o1)C(=O)N[C@@H](Cc1ccccc1)C(=O)O", "note": "[SCCP 5770] (X2-RLIF-OH)", "values": [{"measurement": "fold less potent relative to the triazole N capping group", "setting": "CDK4/Cyclin D1 [3]; CDK4/cyclin D1 context", "result": 25, "unit": "fold"}]}
{"compound": "CC[C@H](C)[C@H](NC(=O)[C@H](CC(C)C)NC(=O)[C@H](CCCNC(=N)N)NC(=O)[C@H](CCCNC(=N)N)NC(=O)[C@H](CCCCN)NC(=O)[C@H](C)NC(=O)[C@@H](N)Cc1c[nH]cn1)C(=O)N[C@@H](Cc1cccnc1)C(N)=O", "note": "[HAKRRLIX7] (H-HAKRRLI[3Pal]-NH2)", "values": [{"measurement": "IC50", "setting": "CDK2/Cyclin A2", "result": 29, "unit": "µM"}]}
{"compound": "CC[C@H](C)[C@H](NC(=O)[C@H](CC(C)C)NC(=O)[C@H](CCCNC(N)=O)NC(=O)[C@@H](N)CCCNC(=N)N)C(=O)N[C@@H](Cc1ccccc1)C(N)=O", "note": "[RCitLIF]", "values": [{"measurement": "IC50", "setting": "CDK4/Cyclin D1 [1]", "result": 179, "unit": "µM"}]}
{"compound": "CCN(CCCc1ccccc1)C(=O)C(CC(C)C)NC(=O)[C@H](CCCNC(=N)N)NC(=O)c1nc(C)n(-c2cc(Cl)cc(Cl)c2)n1", "note": "(some centres unmarked) [compound 6005]", "values": [{"measurement": "IC50", "setting": "CDK2/cyclin A; [5]", "result": "> 180", "unit": "µM"}, {"measurement": "IC50", "setting": "CDK4/Cyclin D1 [3]; [6]", "result": "> 180", "unit": "µM"}]}
{"compound": "CCN(Cc1ccccc1)C(=O)CC(CC(C)C)NC(=O)[C@H](CCCNC(=N)N)NC(=O)c1nc(C)n(-c2cc(Cl)cc(Cl)c2)n1", "note": "(some centres unmarked) [compound 6001]", "values": [{"measurement": "IC50", "setting": "CDK2/cyclin A; [5]", "result": "> 180", "unit": "µM"}, {"measurement": "IC50", "setting": "CDK4/Cyclin D1 [3]; [6]", "result": "> 180", "unit": "µM"}]}
{"compound": "CC[C@H](C)[C@H](NC(=O)[C@H](CC(C)C)NC(=O)[C@H](CCCNC(=N)N)NC(=O)c1ccccc1)C(=O)N[C@@H](Cc1ccccc1)C(N)=O", "note": "[compound 5857] (Bz-RLIF-NH2)", "values": [{"measurement": "IC50", "setting": "CDK2/cyclin A", "result": "> 100", "unit": "µM"}, {"measurement": "IC50", "setting": "CDK4/Cyclin D1 [3]", "result": "100 to 180", "unit": "µM"}]}
{"compound": "Cc1nc(C(=O)N[C@@H](CCCNC(=N)N)C(=O)NC(CC(C)C)C(=O)NCCCc2ccccc2)nn1-c1cc(Cl)cc(Cl)c1", "note": "(some centres unmarked) [SCCP 6004]", "values": [{"measurement": "IC50", "setting": "CDK2/cyclin A; [5]", "result": 57.7, "unit": "µM"}]}
